# Assay results published in patent publication US20110224300A1, “USE OF POTASSIUM 2-(a- HYDROXYPENTYL) BENZOATE IN THE MANUFACTURE OF MEDICAMENTS FOR PREVENTING AND/OR TREATING SENILE [sequence]” (Institute of Mataria Medica, Chinese Academy of Me, priority 2008, published 2011).
# Legend:
# GFAP = GFAP immunohistochemistry, activated astrocytes of 2-VO rats; format: in vivo, rat
# Description: The method for tissue fixation was described above. Serial coronal sections (40 μm) of the brains were cut through the dorsal hippocampus on a freezing microtome and collected in 6-well plates containing 0.01 M PBS. The detection of GFAP and BDNF immunoreactivity was performed using a conventional avidin-biotin-immunoperoxidease technique.
# For quantitative analysis, one from every five samples in a continuous series of hippocampal or cortical tissue sections was taken, and was processed immunohistochemically. Thus, three slides were taken from each rat, and were read under an objective (×1.6) microscope. The total area of positively stained neurons was counted with Image-pro Plus 5.0 software.
# Cerebral damage caused by hypoperfusion may be the basis for spatial learning and memory impairment, including earliest white matter damage, accompanied by an increase of astrocytes and microglia activation. Glial fibrillary acidic protein (GFAP) immunohistochemical staining can be used to label the activated astrocytes. 2-3 photos were taken from each selected slices in the same regions. The number of the GFAP positive astrocytes was calculated as the average value of the region. Four anatomical regions were selected to observe: the cortex, hippocampus, corpus callosum and optic tract.
# [1] = system: permanent 2-VO rats (chronic cerebral hypoperfusion); assay: Morris water maze in permanent 2-VO (BCCAO) rats; format: in vivo, rat; details: Piracetam 600 mg/kg
# Description: Chronic cerebral hypoperfusion was proceeded by a permanent, bilateral occlusion of the common carotid arteries (2-VO) of adult rats. The rats were anesthetized with 10% trichloro-acetaldehyde, and temperature probe was inserted into the rectum, and a separate heating lamp was used to maintain rectal temperature at normothermic level. After a midline neck skin incision, the common carotid artery were exposed and ligated by a 5-0 nylon suture.
# Rats were randomly divided into six experimental groups (20 rats/each group): one sham-operated group, one vehicle control group, one piracetam-treated group (600 mg/kg), and three dl-PHPB-treated groups (13, 39, and 129 mg/kg). In 10 days after onset of 2-VO, drugs and vehicle were administered orally to rats for 21 days (one time/each day). The spatial learning and memory capability of rats were detected by Morris water maze in the 25-30 days after operation. The Morris water test was commenced at 40 min after drugs treated. The biochemical and pathology assays were conducted later (in 24 h) after behavioral tests.
# Subjects were tested in a Morris water maze. This test is based on a standardized assessment of spatial learning ability. The water maze apparatus consisted of a circular, stainless pool (120 cm in diameter, 60 cm in height). It was placed in a dimly lit, sound-proof test room. Multiple distant cues around the room (window, cabinets, furniture) were kept in the same location throughout the experiments. The water was filled to a depth of 40 cm at 25±1° C. and was made opaque by adding milk powder to prevent visualization of the platform. A transparent platform (10 cm diameter) was put 1.5 cm below the surface of the water. The tank was divided into four quadrants with the platform in a fixed position in one quadrant. The subjects were placed into the maze facing the pool wall and were allowed two trials per day, 60 s per trial, to find the hidden platform. If the subject found the platform within the 60 s, it was given a 10-s rest period on the platform between trials. If the pedestal was not located within the time allotted, the subject was placed on to the platform and allowed 10 s until the next trial. The escape latency (time to reach the platform) was used to assess acquisition of the water maze task. Sessions were repeated for five consecutive days. On the sixth day, the platform was removed and the rat was allowed to search for the platform for 60 s (probe test). The time in the platform quadrant and latency time to cross platform location were recorded to measure the spatial learning ability without the influence of chance encounters with the platform. The Morris water maze sessions were recorded with a video camera for offline analysis.
# [2] = 1st of 5 M/R/T/L column groups (day not printed)
# [3] = 2nd of 5 M/R/T/L column groups (day not printed)
# [4] = 3rd of 5 M/R/T/L column groups (day not printed)
# [5] = 4th of 5 M/R/T/L column groups (day not printed)
# [6] = 5th of 5 M/R/T/L column groups (day not printed)
structure (smiles),measurement,setting,value
"NC(=O)CN1CCCC1=O [Piracetam, reference compound]",GFAP-positive cells in the optic tract,"GFAP; Piracetam, 21 days",significantly less than the vehicle group
same,GFAP-positive cells in the hippocampus,"GFAP; administration of 21 days, P<0.05 or P<0.01",significantly less than in the vehicle group
same,GFAP-positive cells in the cortex,"GFAP; administration of 21 days, in particular dl-PHPB 39 mg/kg (P<0.01)",significantly less than in the vehicle group
same,"search strategy times, linear mode (L)",[1]; [2],1
same,"search strategy times, marginal mode (M)",[1]; [2],10
same,"search strategy times, random mode (R)",[1]; [2],15
same,"search strategy times, tendency mode (T)",[1]; [2],14
same,"search strategy times, linear mode (L)",[1]; [3],8
same,"search strategy times, marginal mode (M)",[1]; [3],3
same,"search strategy times, random mode (R)",[1]; [3],11
same,"search strategy times, tendency mode (T)",[1]; [3],17
same,"search strategy times, linear mode (L)",[1]; [4],10
same,"search strategy times, marginal mode (M)",[1]; [4],1
same,"search strategy times, random mode (R)",[1]; [4],6
same,"search strategy times, tendency mode (T)",[1]; [4],23
same,"search strategy times, linear mode (L)",[1]; [5],10
same,"search strategy times, marginal mode (M)",[1]; [5],1
same,"search strategy times, random mode (R)",[1]; [5],7
same,"search strategy times, tendency mode (T)",[1]; [5],23
same,"search strategy times, linear mode (L)",[1]; [6],19
same,"search strategy times, marginal mode (M)",[1]; [6],1
same,"search strategy times, random mode (R)",[1]; [6],8
same,"search strategy times, tendency mode (T)",[1]; [6],12
